Results published in the Kinase Knowledgebase extract (Sharma et al. 2016).

Each compound was assayed against MAPK14 (human) (UniProt Q16539) (assay: Inhibition of MAPK14 Kinase Activity).
Chain of MAPK14 (human) (Q16539 whole entry, looked up): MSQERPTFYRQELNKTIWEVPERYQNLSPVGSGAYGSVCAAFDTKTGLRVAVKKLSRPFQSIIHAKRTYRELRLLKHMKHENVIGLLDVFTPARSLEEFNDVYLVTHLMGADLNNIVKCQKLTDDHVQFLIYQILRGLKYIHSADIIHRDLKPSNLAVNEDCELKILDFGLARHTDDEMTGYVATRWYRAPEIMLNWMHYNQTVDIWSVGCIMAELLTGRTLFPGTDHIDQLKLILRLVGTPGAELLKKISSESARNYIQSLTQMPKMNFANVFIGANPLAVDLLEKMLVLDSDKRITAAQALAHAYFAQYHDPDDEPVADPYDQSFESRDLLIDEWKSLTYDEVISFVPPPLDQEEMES

| Structure (SMILES) | IC50 |
| --- | --- |
| Cc1cc(F)ccc1-c1nc(NC2CCCCC2)nc2c1ccc(=O)n2-c1c(F)cccc1F | < 10 µM |
| Cc1cc(F)ccc1-c1nc(NC2CCC(O)CC2)nc2c1ccc(=O)n2-c1ccccc1F (configuration not stated) | < 10 µM |
| Cc1cc(F)ccc1-c1nc(OCCNC(=O)OC(C)(C)C)nc2c1ccc(=O)n2-c1c(F)cccc1F | < 10 µM |
| Cc1cc(F)ccc1-c1nc(NC(C)(C)CO)nc2c1ccc(=O)n2-c1ccccc1C | < 10 µM |
| Cc1cc(F)ccc1-c1nc(NC2CCOCC2)nc2c1ccc(=O)n2-c1c(F)cccc1F | < 10 µM |
| Cc1cc(F)ccc1-c1nc(NCC(C)(C)O)nc2c1ccc(=O)n2-c1ccccc1C | < 10 µM |
| Cc1cc(F)ccc1-c1nc(NC[C@@H](C)O)nc2c1ccc(=O)n2-c1ccccc1F | < 10 µM |
| Cc1cc(F)ccc1-c1nc(NCC(=O)N2CCCC2)nc2c1ccc(=O)n2-c1c(F)cccc1F | < 10 µM |
| COc1nc(-c2ccccc2Cl)c2ccc(=O)n(-c3ccccc3Cl)c2n1 | < 10 µM |
| Cc1cc(F)ccc1-c1nc(NCCCS(C)(=O)=O)nc2c1ccc(=O)n2-c1c(F)cccc1F | < 10 µM |
| Cc1cc(F)ccc1-c1nc(OCCCS(C)(=O)=O)nc2c1ccc(=O)n2-c1c(F)cccc1F | < 10 µM |
| CCOC(=O)NCCNc1nc(-c2ccc(F)cc2C)c2ccc(=O)n(-c3c(F)cccc3F)c2n1 | < 10 µM |
| O=c1ccc2c(-c3ccccc3F)nc(NC(CO)CO)nc2n1-c1c(F)cccc1F | < 10 µM |
| CCNc1nc(-c2ccc(F)cc2C)c2ccc(=O)n(-c3c(F)cccc3F)c2n1 | < 10 µM |
| Cc1cc(F)ccc1-c1nc(OCCNS(C)(=O)=O)nc2c1ccc(=O)n2-c1c(F)cccc1F | < 10 µM |
| Cc1cc(F)ccc1-c1nc(NCc2nnn[nH]2)nc2c1ccc(=O)n2-c1c(F)cccc1F | < 10 µM |
| CS(=O)(=O)Nc1nc(-c2ccccc2)c2ccc(=O)n(-c3ccccc3)c2n1 | < 10 µM |
| Cc1cc(F)ccc1-c1nc(NCCO)nc2c1ccc(=O)n2-c1ccccc1F | < 10 µM |
| Cc1cc(F)ccc1-c1nc(NCCO)nc2c1ccc(=O)n2-c1c(F)cccc1F | < 10 µM |
| CCC(CC)n1c(=O)ccc2c(-c3ccc(F)cc3C)nc(OC)nc21 | < 10 µM |
| Cc1cc(F)ccc1-c1nc(NCCCN2CCCC2=O)nc2c1ccc(=O)n2-c1c(F)cccc1F | < 10 µM |

| Structure (SMILES) | IC50 |
| --- | --- |
| Cc1cc(F)ccc1-c1nc(NCCC(=N)NO)nc2c1ccc(=O)n2-c1c(F)cccc1F | < 10 µM |
| Cc1cc(F)ccc1-c1nc(N[C@@H](C)CO)nc2c1ccc(=O)n2-c1ccccc1C | < 10 µM |
| Cc1cc(F)ccc1-c1nc(NCCNC(=O)C(C)(C)C)nc2c1ccc(=O)n2-c1c(F)cccc1F | < 10 µM |
| Cc1cc(F)ccc1-c1nc(N[C@H]2CC[C@H](O)CC2)nc2c1ccc(=O)n2-c1ccccc1C | < 10 µM |
| CCC(CC)n1c(=O)ccc2c(-c3ccccc3Cl)nc(NCCN(CC)CC)nc21 | < 10 µM |
| O=c1ccc2c(-c3ccccc3Cl)nc(NC3CCNCC3)nc2n1-c1ccccc1Cl | < 10 µM |
| COc1nc(-c2ccccc2F)c2ccc(=O)n(-c3ccccc3Cl)c2n1 | < 10 µM |
| Cc1cc(F)ccc1-c1nc(N(C)S(C)(=O)=O)nc2c1ccc(=O)n2-c1c(F)cccc1F | < 10 µM |
| CSc1nc(-c2ccccc2F)c2ccc(=O)n(C(C)C)c2n1 | < 10 µM |
| Nc1nc(-c2ccccc2F)c2ccc(=O)n(-c3c(F)cccc3F)c2n1 | < 10 µM |
| Cc1cc(F)ccc1-c1nc(NC[C@@H](C)O)nc2c1ccc(=O)n2-c1c(F)cccc1F | < 10 µM |
| CSCCCNc1nc(-c2ccc(F)cc2C)c2ccc(=O)n(-c3c(F)cccc3F)c2n1 | < 10 µM |
| Cc1cc(F)ccc1-c1nc(NCCc2nnn[nH]2)nc2c1ccc(=O)n2-c1c(F)cccc1F | < 10 µM |
| CSc1nc(-c2ccccc2F)c2ccc(=O)[nH]c2n1 | < 10 µM |
| Cc1cc(F)ccc1-c1nc(OCCN)nc2c1ccc(=O)n2-c1c(F)cccc1F | < 10 µM |
| Cc1cc(F)ccc1-c1nc(NC(CO)CO)nc2c1ccc(=O)n2C1CC1 | < 10 µM |
| CS(=O)(=O)c1nc(-c2ccccc2Cl)c2ccc(=O)n(-c3ccccc3Cl)c2n1 | < 10 µM |
| Cc1cc(F)ccc1-c1nc(NCCC#N)nc2c1ccc(=O)n2-c1c(F)cccc1F | < 10 µM |
| CNc1nc(-c2ccc(F)cc2C)c2ccc(=O)n(-c3c(F)cccc3F)c2n1 | < 10 µM |
| Cc1cc(F)ccc1-c1nc(N[C@H]2CC[C@H](O)CC2)nc2c1ccc(=O)n2-c1c(F)cccc1F | < 10 µM |
| Cc1nnc(CNc2nc(-c3ccc(F)cc3C)c3ccc(=O)n(-c4c(F)cccc4F)c3n2)[nH]1 | < 10 µM |

Now from value to compound:

| IC50 | Structure (SMILES) |
| --- | --- |
| < 10 µM | Cc1cc(F)ccc1-c1nc(NC(CO)(CO)CO)nc2c1ccc(=O)n2-c1c(F)cccc1F |
| < 10 µM | Cc1cc(F)ccc1-c1nc(NCCc2c[nH]cn2)nc2c1ccc(=O)n2-c1c(F)cccc1F |
| < 10 µM | Cc1cc(F)ccc1-c1nc(NC(CO)CO)nc2c1ccc(=O)n2CC1CC1 |
| < 10 µM | Cc1cc(F)ccc1-c1nc(NC(=O)C2CC2)nc2c1ccc(=O)n2-c1c(F)cccc1F |
| < 10 µM | CCONc1nc(-c2ccc(F)cc2C)c2ccc(=O)n(-c3ccccc3F)c2n1 |
| < 10 µM | Cc1cc(F)ccc1-c1nc(N[C@H](C)CO)nc2c1ccc(=O)n2-c1c(F)cccc1F |
| < 10 µM | O=c1ccc2c(-c3ccccc3Cl)nc(NCCO)nc2n1-c1ccccc1Cl |
| < 10 µM | Cc1cc(F)ccc1-c1nc(NC2CCCCC2)nc2c1ccc(=O)n2-c1ccccc1F |
| < 10 µM | Cc1cc(F)ccc1-c1nc(OC(CO)CO)nc2c1ccc(=O)n2-c1c(F)cccc1F |
| < 10 µM | CCOC(=O)CNc1nc(-c2ccccc2Cl)c2ccc(=O)n(-c3ccccc3Cl)c2n1 |
| < 10 µM | CSc1nc(-c2ccccc2F)c2ccc(=O)n(-c3ccccc3F)c2n1 |
| < 10 µM | CC(CO)(CO)Nc1nc(-c2ccccc2Cl)c2ccc(=O)n(-c3ccccc3Cl)c2n1 |
| < 10 µM | Cc1cc(F)ccc1-c1nc(NCCO)nc2c1ccc(=O)n2-c1ccccc1C |
| < 10 µM | CCOc1nc(-c2ccc(F)cc2C)c2ccc(=O)n(-c3c(F)cccc3F)c2n1 |
| < 10 µM | CSc1nc(-c2ccccc2)c2ccc(=O)n(-c3ccccc3)c2n1 |
| < 10 µM | CCN(CC)CCNc1nc(-c2ccccc2Cl)c2ccc(=O)n(-c3ccccc3Cl)c2n1 |
| < 10 µM | Cc1cc(F)ccc1-c1nc(NCC(=O)N2CCOCC2)nc2c1ccc(=O)n2-c1c(F)cccc1F |
| < 10 µM | CS(=O)(=O)c1nc(-c2ccccc2)c2ccc(=O)n(-c3ccccc3)c2n1 |
| < 10 µM | Cc1cc(F)ccc1-c1nc(NCC(C)(C)C)nc2c1ccc(=O)n2-c1ccccc1F |
| < 10 µM | CCC(C)n1c(=O)ccc2c(-c3ccc(F)cc3C)nc(SC)nc21 (configuration not stated) |
| < 10 µM | Cc1cc(F)ccc1-c1nc(N2CCOCC2)nc2c1ccc(=O)n2-c1ccccc1C |
| < 10 µM | Cc1cc(F)ccc1-c1nc(NCCO)nc2c1ccc(=O)n2C(C)C |
| < 10 µM | CSCCCOc1nc(-c2ccc(F)cc2C)c2ccc(=O)n(-c3c(F)cccc3F)c2n1 |
| < 10 µM | O=c1ccc2c(-c3ccccc3F)nc(NC(CO)CO)nc2n1CC1CC1 |
| < 10 µM | Cc1cc(F)ccc1-c1nc(N[C@@H]2CS(=O)(=O)C[C@H]2O)nc2c1ccc(=O)n2-c1c(F)cccc1F |

| IC50 | Structure (SMILES) |
| --- | --- |
| < 10 µM | CCCCOc1nc(-c2ccc(F)cc2C)c2ccc(=O)n(-c3c(F)cccc3F)c2n1 |
| < 10 µM | CSc1nc(NC2CCCCC2)c(C=O)c(-c2ccc(F)cc2C)n1 |
| < 10 µM | CCOc1nc(-c2ccc(F)cc2C)c2ccc(=O)n(C3CCCCC3)c2n1 |
| < 10 µM | Cc1cc(F)ccc1-c1nc(NC[C@H](C)O)nc2c1ccc(=O)n2C1CCCCC1 |
| < 10 µM | CSc1nc(Cl)c(C=O)c(NC2CCCCC2)n1 |
| < 10 µM | Cc1cc(F)ccc1-c1nc(NC(CO)CO)nc2c1ccc(=O)n2C(C)C |
| < 10 µM | Cc1cc(F)ccc1-c1nc(NC(CO)CO)nc2c1ccc(=O)n2-c1c(F)cccc1F |
| < 10 µM | Cc1cc(F)ccc1-c1nc(NCC(C)(C)O)nc2c1ccc(=O)n2-c1c(F)cccc1F |
| < 10 µM | Cc1cc(F)ccc1-c1nc(S(C)(=O)=O)nc2c1ccc(=O)n2C1CCCCC1 |
| < 10 µM | Cc1cc(F)ccc1-c1nc(NC(CO)CO)nc2c1ccc(=O)n2-c1ccccc1C |
| < 10 µM | Cc1cc(F)ccc1-c1nc(NCC(=O)O)nc2c1ccc(=O)n2-c1c(F)cccc1F |
| < 10 µM | CS(=O)(=O)Nc1nc(-c2ccccc2F)c2ccc(=O)n(-c3c(F)cccc3F)c2n1 |
| < 10 µM | CCNc1nc(-c2ccc(F)cc2C)c2ccc(=O)n(-c3ccccc3C)c2n1 |
| < 10 µM | Cc1cc(F)ccc1-c1nc(Nc2nnn[nH]2)nc2c1ccc(=O)n2-c1c(F)cccc1F |
| < 10 µM | Cc1cc(F)ccc1-c1nc(NCC2CCCO2)nc2c1ccc(=O)n2-c1c(F)cccc1F (configuration not stated) |
| < 10 µM | Cc1cc(CNc2nc(-c3ccc(F)cc3C)c3ccc(=O)n(-c4c(F)cccc4F)c3n2)on1 |
| < 10 µM | CSc1nc(-c2ccccc2F)c2ccc(=O)n(CC3CC3)c2n1 |
| < 10 µM | Cc1cc(F)ccc1-c1nc(N[C@@H]2CCC[C@@H]2C(N)=O)nc2c1ccc(=O)n2-c1c(F)cccc1F |
| < 10 µM | O=c1ccc2c(-c3ccccc3F)nc(NC(CO)CO)nc2n1-c1ccccc1F |
| < 10 µM | CCC(CC)n1c(=O)ccc2c(-c3ccccc3Cl)nc(NCCO)nc21 |
| < 10 µM | Cc1cc(F)ccc1-c1nc(NC2CCN(C)CC2)nc2c1ccc(=O)n2-c1c(F)cccc1F |
| < 10 µM | Cc1cc(F)ccc1-c1nc(NC(C)(C)CO)nc2c1ccc(=O)n2-c1c(F)cccc1F |
| < 10 µM | O=C(O)CNc1nc(-c2ccccc2Cl)c2ccc(=O)n(-c3ccccc3Cl)c2n1 |
| < 10 µM | Cc1cc(F)ccc1-c1nc(NC[C@H](O)c2ccccc2)nc2c1ccc(=O)n2-c1c(F)cccc1F |
| < 10 µM | CN1CCC(Nc2nc(-c3ccccc3Cl)c3ccc(=O)n(-c4ccccc4Cl)c3n2)CC1 |
